According to the supplement of paper PMC11451515:

Test system: NOMO1
Assay: cell viability relative to DMSO control; higher = less cytotoxic
Conditions: 48 h
Procedure, shortened: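 Viability was expressed as a per-plate percentage of DMSO wells, with cell-free wells as background. Leukemia cells (NOMO1 or SEM at 500 cells/well, P12-Ichikawa at 1000 cells/well) were adapted for at least four passages in each medium and seeded in 1536-well plates (5 μl). Library compounds in DMSO were pin-dosed over an 11-point threefold series from 47 μM to 0.79 nM, and CellTiter-Glo One luminescence was read after 48 h at 37°C.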

[1] = HPLM + 10% dialyzed FBS, 0.000781 µM
[2] = HPLM + 10% dialyzed FBS, 0.00234 µM
[3] = HPLM + 10% dialyzed FBS, 0.00702 µM
[4] = HPLM + 10% dialyzed FBS, 0.0211 µM
[5] = HPLM + 10% dialyzed FBS, 0.0632 µM
[6] = HPLM + 10% dialyzed FBS, 0.19 µM
[7] = HPLM + 10% dialyzed FBS, 0.569 µM
[8] = HPLM + 10% dialyzed FBS, 1.71 µM
[9] = HPLM + 10% dialyzed FBS, 5.12 µM
[10] = HPLM + 10% dialyzed FBS, 15.4 µM
[11] = HPLM + 10% dialyzed FBS, 46.1 µM
[12] = RPMI 5 mM glucose + 10% FBS, 0.000781 µM
[13] = RPMI 5 mM glucose + 10% FBS, 0.00234 µM
[14] = RPMI 5 mM glucose + 10% FBS, 0.00702 µM
[15] = RPMI 5 mM glucose + 10% FBS, 0.0211 µM
[16] = RPMI 5 mM glucose + 10% FBS, 0.0632 µM
[17] = RPMI 5 mM glucose + 10% FBS, 0.19 µM
[18] = RPMI 5 mM glucose + 10% FBS, 0.569 µM
[19] = RPMI 5 mM glucose + 10% FBS, 1.71 µM
[20] = RPMI 5 mM glucose + 10% FBS, 5.12 µM
[21] = RPMI 5 mM glucose + 10% FBS, 15.4 µM
[22] = RPMI 5 mM glucose + 10% FBS, 46.1 µM
[23] = RPMI 5 mM glucose + 10% dialyzed FBS, 0.000781 µM
[24] = RPMI 5 mM glucose + 10% dialyzed FBS, 0.00234 µM
[25] = RPMI 5 mM glucose + 10% dialyzed FBS, 0.00702 µM
[26] = RPMI 5 mM glucose + 10% dialyzed FBS, 0.0211 µM
[27] = RPMI 5 mM glucose + 10% dialyzed FBS, 0.0632 µM
[28] = RPMI 5 mM glucose + 10% dialyzed FBS, 0.19 µM
[29] = RPMI 5 mM glucose + 10% dialyzed FBS, 0.569 µM
[30] = RPMI 5 mM glucose + 10% dialyzed FBS, 1.71 µM
[31] = RPMI 5 mM glucose + 10% dialyzed FBS, 5.12 µM
[32] = RPMI 5 mM glucose + 10% dialyzed FBS, 15.4 µM
[33] = RPMI 5 mM glucose + 10% dialyzed FBS, 46.1 µM

SMILES	cell viability [1] [%]	cell viability [2] [%]	cell viability [3] [%]	cell viability [4] [%]	cell viability [5] [%]	cell viability [6] [%]	cell viability [7] [%]	cell viability [8] [%]	cell viability [9] [%]	cell viability [10] [%]	cell viability [11] [%]	cell viability [12] [%]	cell viability [13] [%]	cell viability [14] [%]	cell viability [15] [%]	cell viability [16] [%]	cell viability [17] [%]	cell viability [18] [%]	cell viability [19] [%]	cell viability [20] [%]	cell viability [21] [%]	cell viability [22] [%]	cell viability [23] [%]	cell viability [24] [%]	cell viability [25] [%]	cell viability [26] [%]	cell viability [27] [%]	cell viability [28] [%]	cell viability [29] [%]	cell viability [30] [%]	cell viability [31] [%]	cell viability [32] [%]	cell viability [33] [%]
O=C([O-])C(O)Cc1ccc(O)c(O)c1 (configuration not stated)	100	91	108	95.5	116	106	99.4	100	90.8	74.9	60.1	91.8	83.7	87.1	96.5	91.2	91.8	84	92.5	87.4	77.9	64.3	96.7	102	104	100	96.4	91.4	100	84.4	81.4	78.5	65.4
c1cncc(CN2CCC(n3ncc4c(N5CCOCC5)nc(-c5ccc6[nH]ccc6c5)nc43)CC2)c1	92.1	107	92.5	94.8	84.4	89.1	78.6	72.7	60.1	44	35	88.4	80.4	88.1	92.7	87.8	82.2	83.6	82.8	80.5	49.3	15.7	87.3	83.9	96.4	97.7	86.2	85.2	69.2	70.4	71.2	46.6	20
CCC1(C)CC(=O)NC1=O (configuration not stated)	114	116	105	118	102	111	104	93.9	105	86.7	84.2	85.5	89.2	84.7	87.5	89.2	92.2	99.2	81.7	90.3	94.5	77.4	104	98.1	96.7	94.3	81.3	101	98.4	92.7	96.6	88.2	87.6
CC1CCC(C(=O)N(c2cc(C#CC(C)(C)C)sc2C(=O)O)C2CCC(O)CC2)CC1 (configuration not stated)	108	98.7	111	113	96	92.9	98.7	85	78.9	50.1	53.5	87.2	98.8	91.5	90.9	85	87.9	88.6	87.7	78.1	75.1	59.8	97.5	97.1	89.7	98.3	96.5	86.3	93.2	81.7	79.9	65.2	46.1
C#Cc1cccc(Nc2ncnc3cc(OCCOC)c(OCCOC)cc23)c1	94.2	104	101	83.7	108	86	90.9	110	79.3	75.3	45.7	85.4	96.9	102	102	93.2	91.8	95	93.7	89.7	85.1	70.7	92.2	85.5	88.9	83.4	86.6	83.8	85.4	89	77.6	84	50.2
C[C@H]1[C@H](NC(=O)/C(=N/OC(C)(C)C(=O)O)c2csc(N)n2)C(=O)N1[S+](=O)([O-])O	98.5	98	98.9	111	108	110	113	88.2	102	85.3	90.4	105	98.3	101	108	107	105	107	104	92.3	108	103	94.2	101	94.1	92.3	97.3	94.7	91.7	99.2	85.2	91.1	83.3
CC1=C(/C=C/C(C)=C/C=C/C(C)=C/C=C/C=C(C)/C=C/C=C(C)/C=C/C2=C(C)CCCC2(C)C)C(C)(C)CCC1	115	110	108	104	104	107	100	98.2	118	92.9	98.2	119	112	110	111	108	108	99.3	101	113	102	95.5	101	113	129	108	112	111	107	117	114	95.1	90.3
CCC(C)SSc1ncc[nH]1 (configuration not stated)	88	85.5	94.8	103	102	105	90.3	87.4	104	53.6	12.6	86	93.9	97.7	98.2	92.5	93.1	96.5	104	104	67.5	13.6	89	97.6	89.2	101	94.5	94.5	94.8	105	101	81.8	9.7
[NH2][Pt]1([NH2])[O]CC(=O)[O]1	96.9	109	98	101	96	108	97.8	106	85.9	91.3	88.3	94.5	83	99.1	85.2	82.4	93.8	98.7	92.9	93.8	80.5	84.3	92.7	86.9	90.7	98.1	93.2	89.1	87.8	92.5	83.9	77.8	104
C[C@@H](NC1=CC=CC=C1C(O)=O)C/2=C/C(=C\N3C(=O)/C=C(\N=C23)N4CCOCC4)C	81.1	88.7	89.8	93.6	99.7	81.6	82.6	61.7	40.3	29.4	11.7	79.1	73.6	79.9	91.2	88.2	87.5	78	77.7	48.3	27.7	11.1	74.8	82.9	95.2	88.9	87.8	93.4	83	65.2	41.8	33.1	7.82
COC1=CC=CC=C1C2=CC=CC(=C2)C/3=C(O)/C4=CC(=C(Cl)C=C4NC3=O)C#N	110	120	109	109	129	114	107	103	31.2	5.52	1.77	89.6	111	113	98.5	107	108	113	110	82.4	13.4	2.44	92.2	103	95.4	93.6	96.4	88.3	104	108	84.5	21	4.29
CCCCCOC(=O)NC\1=N\C(=O)N(\C=C1F)[C@@H]2O[C@H](C)[C@@H](O)[C@H]2O	114	111	97	99.7	95.6	106	92.9	98.7	93.8	72.8	81.4	90.8	92.6	97.9	90.8	90.7	102	91.2	87.9	86.4	85	83.3	99.2	105	106	105	103	99.4	101	109	92	73.8	92.5
COc1cc2nc(N(C)CCCNC(=O)C3CCCO3)nc(N)c2cc1OC (configuration not stated)	63.4	82.7	99.4	77.8	96.3	90.6	79.7	89.7	31.3	28	20	70.7	74	71.9	75.4	73.2	81.8	72.1	71.9	33.2	36	10	61.6	76.5	68.8	85	77.6	77.9	75.4	87.4	51.9	61.9	15.1
O=C(NCC[S+](=O)([O-])c1ccc(C(F)(F)F)cn1)c1ccc(Cl)cc1	127	117	119	117	119	120	132	117	105	122	106	122	144	116	134	135	127	123	118	130	128	110											
COc1ccc(C[C@@H](C)[C@@H](C)Cc2ccc(OC)c(OC)c2)cc1OC	92.1	94.8	107	112	93.5	75.5	68	53.7	16.6	17.8	13.8	87.3	93.7	88.6	100	86.3	85.1	74.9	71.6	8.17	6.56	5.76	84	80.2	97.4	97.6	95.3	89.6	82.4	69.2	21.4	11.1	7.7
Cc1ccc(NC(=O)c2ccc(CN3CCN(C)CC3)cc2)cc1Nc1nc(-c2cccnc2)cs1	103	98.1	99.3	105	96.6	89.3	82.6	75.3	76.8	73	75.2	95.9	104	93	94.9	99.4	102	89.3	108	107	106	74.6	97.2	102	98.6	104	93.4	111	87.1	86.1	85.9	78.8	74.3
